ChEMBL document CHEMBL1201862, “PubChem BioAssay data set” (2004)
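In this assay, cells in 96-well plates receive the compound at five concentrations for 48 hours. Endpoints are linearly interpolated between the surrounding concentrations. GI50 = concentration required for 50% inhibition of growth.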 Activity calls are given as the source filed them. Cut-off read from the data, not from the text of the source: active = GI50 up to about 1.1 µM and inactive = higher.

What was measured:
Assay in all cases: NCI-60 cell line screen, 48 h
[1] = system: SW-620
[2] = system: A498
[3] = system: M14
[4] = system: COLO 205
[5] = system: NCI/ADR-RES
[6] = system: Malme-3M
[7] = system: UACC-257
[8] = system: SNB-75
[9] = system: MDA-MB-231
[10] = system: EKVX
[11] = system: DU-145
[12] = system: OVCAR-4
[13] = system: SF-295
[14] = system: HOP-62
[15] = system: SF-539
[16] = system: U-251
[17] = system: HT-29
[18] = system: NCI-H522
[19] = system: NCI-H460
[20] = system: LOX IMVI

SMILES | GI50 [1] | GI50 [2] | GI50 [3] | GI50 [4] | GI50 [5] | GI50 [6] | GI50 [7] | GI50 [8] | GI50 [9] | GI50 [10] | GI50 [11] | GI50 [12] | GI50 [13] | GI50 [14] | GI50 [15] | GI50 [16] | GI50 [17] | GI50 [18] | GI50 [19] | GI50 [20]
CCn1c(=O)c2c3ccc(OC)cc3[nH]c2c2ccc(OC)cc21 | 57.3 µM (inactive) | 67.6 µM (inactive) | 36.1 µM (inactive) | 39.4 µM (inactive) | 32.9 µM (inactive) | 61 µM (inactive) | 71.3 µM (inactive) | 19.8 µM (inactive) | 57 µM (inactive) | 57.8 µM (inactive) | 43.9 µM (inactive) | 54.1 µM (inactive) | 67.1 µM (inactive) | 37.5 µM (inactive) | 52.5 µM (inactive) | > 100 µM (inactive) | 38.3 µM (inactive) | 56.1 µM (inactive) | – | –
CN(C)CCNC(=O)c1cccc(CO)c1[N+](=O)[O-] | > 100 µM (inactive) | > 100 µM (inactive) | > 100 µM (inactive) | > 100 µM (inactive) | > 100 µM (inactive) | > 100 µM (inactive) | > 100 µM (inactive) | 75 µM (inactive) | > 100 µM (inactive) | – | > 100 µM (inactive) | – | > 100 µM (inactive) | > 100 µM (inactive) | > 100 µM (inactive) | > 100 µM (inactive) | > 100 µM (inactive) | > 100 µM (inactive) | > 100 µM (inactive) | –
CC(C)=CCC/C(C)=C/CC/C(C)=C/CC/C(C=O)=C/CC/C(C)=C\CC/C(C)=C/CC/C(C)=C/CC/C(C)=C/CC1=CC(=O)C=CC1=O | > 100 µM (inactive) | > 100 µM (inactive) | 45.3 µM (inactive) | 73.8 µM (inactive) | > 100 µM (inactive) | 21.8 µM (inactive) | 48 µM (inactive) | 38.1 µM (inactive) | > 100 µM (inactive) | > 100 µM (inactive) | > 100 µM (inactive) | > 100 µM (inactive) | 91.4 µM (inactive) | > 100 µM (inactive) | – | 69.7 µM (inactive) | – | 14.9 µM (inactive) | > 100 µM (inactive) | 80.2 µM (inactive)
CCCCN(CCCC)C1(c2cc3ccccc3s2)CCCCC1.[O-][Cl+3]([O-])([O-])O | 15 µM (inactive) | 19.3 µM (inactive) | 14.6 µM (inactive) | 14.9 µM (inactive) | 17.7 µM (inactive) | – | 18.1 µM (inactive) | 16.8 µM (inactive) | 15.9 µM (inactive) | 21.1 µM (inactive) | 16.3 µM (inactive) | 15.4 µM (inactive) | 13.2 µM (inactive) | 15.1 µM (inactive) | 19.1 µM (inactive) | 17.3 µM (inactive) | 13.1 µM (inactive) | 12.6 µM (inactive) | 13.5 µM (inactive) | 13.9 µM (inactive)
CCOC(=O)c1nc2ccc(C(F)(F)F)cc2nc1Nc1ccc(OC)c(OC)c1 | > 100 µM (inactive) | > 100 µM (inactive) | > 100 µM (inactive) | > 100 µM (inactive) | > 100 µM (inactive) | > 100 µM (inactive) | > 100 µM (inactive) | 21.6 µM (inactive) | 48.9 µM (inactive) | > 100 µM (inactive) | > 100 µM (inactive) | – | > 100 µM (inactive) | 12 µM (inactive) | 98.6 µM (inactive) | – | > 100 µM (inactive) | > 100 µM (inactive) | > 100 µM (inactive) | > 100 µM (inactive)
O=C(O)C/C=C/CC(=O)O | > 100 µM (inactive) | > 100 µM (inactive) | > 100 µM (inactive) | > 100 µM (inactive) | > 100 µM (inactive) | > 100 µM (inactive) | > 100 µM (inactive) | > 100 µM (inactive) | > 100 µM (inactive) | > 100 µM (inactive) | > 100 µM (inactive) | > 100 µM (inactive) | > 100 µM (inactive) | > 100 µM (inactive) | – | > 100 µM (inactive) | > 100 µM (inactive) | > 100 µM (inactive) | > 100 µM (inactive) | > 100 µM (inactive)
CCOC(=O)c1nc2ccc(C(F)(F)F)cc2nc1Nc1cc(OC)c(OC)c(OC)c1 | > 100 µM (inactive) | > 100 µM (inactive) | > 100 µM (inactive) | > 100 µM (inactive) | > 100 µM (inactive) | > 100 µM (inactive) | > 100 µM (inactive) | > 100 µM (inactive) | > 100 µM (inactive) | > 100 µM (inactive) | > 100 µM (inactive) | – | > 100 µM (inactive) | > 100 µM (inactive) | > 100 µM (inactive) | – | > 100 µM (inactive) | > 100 µM (inactive) | > 100 µM (inactive) | > 100 µM (inactive)
CCCCCc1cc2cc3c(c(O)c2c(=O)[nH]1)C1(CCC3)C(=O)c2c(O)c3c(c(O)c2C1=O)C(=O)C(OC)=CC3=O (stereo unspecified) | 0.681 µM (active) | 2.18 µM (inactive) | 0.908 µM (active) | 0.276 µM (active) | 4.56 µM (inactive) | 0.468 µM (active) | 0.783 µM (active) | 0.906 µM (active) | 0.792 µM (active) | 0.361 µM (active) | 0.822 µM (active) | 1.44 µM (inactive) | 1.91 µM (inactive) | 3.33 µM (inactive) | – | 0.621 µM (active) | 0.748 µM (active) | 0.59 µM (active) | 0.757 µM (active) | 0.661 µM (active)
CC(=O)O[C@H]1C(=O)[C@@]2(C)[C@H]([C@H](OC(=O)c3ccccc3)[C@]3(O)C[C@H](OC(=O)[C@H](O)[C@@H](NC(=O)c4ccc(N(C)C)cc4)c4ccccc4)C(C)=C1C3(C)C)[C@]1(OC(C)=O)CO[C@@H]1C[C@@H]2O | < 0.005 µM (active) | 0.0428 µM (active) | < 0.005 µM (active) | < 0.005 µM (active) | 2.21 µM (inactive) | – | – | < 0.005 µM (active) | 0.0543 µM (active) | 0.112 µM (active) | < 0.005 µM (active) | 2.92 µM (inactive) | 0.0119 µM (active) | 0.0136 µM (active) | < 0.005 µM (active) | < 0.005 µM (active) | < 0.005 µM (active) | < 0.005 µM (active) | < 0.005 µM (active) | < 0.005 µM (active)
CC(=O)N[C@H]1CCCC[C@@H]1OC(C)=O | > 100 µM (inactive) | > 100 µM (inactive) | – | > 100 µM (inactive) | > 100 µM (inactive) | > 100 µM (inactive) | > 100 µM (inactive) | > 100 µM (inactive) | > 100 µM (inactive) | > 100 µM (inactive) | > 100 µM (inactive) | > 100 µM (inactive) | > 100 µM (inactive) | > 100 µM (inactive) | – | > 100 µM (inactive) | > 100 µM (inactive) | > 100 µM (inactive) | > 100 µM (inactive) | > 100 µM (inactive)
O=C(O)c1ccccc1/N=N/c1c(O)c(S(=O)(=O)O)cc2cc(S(=O)(=O)O)ccc12 | > 100 µM (inactive) | > 100 µM (inactive) | > 100 µM (inactive) | > 100 µM (inactive) | > 100 µM (inactive) | > 100 µM (inactive) | > 100 µM (inactive) | > 100 µM (inactive) | > 100 µM (inactive) | > 100 µM (inactive) | > 100 µM (inactive) | > 100 µM (inactive) | > 100 µM (inactive) | > 100 µM (inactive) | > 100 µM (inactive) | > 100 µM (inactive) | > 100 µM (inactive) | > 100 µM (inactive) | > 100 µM (inactive) | –
